Source: patent US7972800B2, “Screening method for binding property or signal transduction alterations” (Takeda Pharmaceutical Company Limited, priority 2003, dated 2011)

Tests used:
[1] = tested on: CHO cells where the receptor was not expressed or GPCR other than GPR39 was expressed; type: cell-based; conditions: FLIPR; control cells
rat GPR39 = type: cell-based; conditions: FLIPR, Fluo-3AM (FIG. 9 through FIG. 13)
Method: (§1) Using the CHO cell line where rat GPR39 was stably expressed, the agonist activity of metal ions was detected using FLIPR in terms of the intracellular calcium-increasing reaction as an indicator. The CHO cell line used, wherein rat GPR39 was stably expressed, was cultured in HAM's αMEM (Invitrogen Corp.) containing 10% calf fetal serum (Invitrogen Corp.). On the day before the assay was conducted, the human GPR39-expressing CHO cell line was cultured in a culture flask to reach a confluent state. After washing with PBS, the cells were scraped off using trypsin and centrifuged for recovery. The cells were then suspended in medium and the suspension was adjusted to 3×10^5 cells/ml. Then, the suspension was dispensed onto a black walled 96-well plate (Costar) in 100 μl each per well, followed by incubation overnight in a CO2 incubator.
(§2) On the day when the assay was conducted, various test samples were added to the cells and the changes of intracellular calcium levels in this case were determined by FLIPR (Molecular Device). In order to determine the changes in intracellular calcium levels on FLIPR, the cells were pre-treated by the following procedures. First, for the purpose of adding a fluorescent dye Fluo-3AM (DOJIN) to the cells or washing the cells immediately before the FLIPR assay, an assay buffer was prepared. A solution was prepared by adding 20 ml of 1M HEPES (pH 7.4) (DOJIN) to 1000 ml of HBSS (Invitrogen Corp.) (hereinafter HBSS/HEPES solution), to which solution was added 10 ml of a solution mixture obtained by dissolving 710 mg of Probenecid (Sigma) in 5 ml of 1N NaOH and further adding 5 ml of HBSS/HEPES solution thereto. The resulting solution was used as the assay buffer. Next, 50 μg of Fluo-3AM was dissolved in 21 μl of DMSO (DOJIN) and an equal volume of 20% Pluronic acid (Molecular Probes) was added to and mixed with the solution. The mixture was then added to 10.6 ml of the assay buffer supplemented with 105 μl of fetal calf serum to prepare a fluorescent dye solution. The medium for the CHO cells where human GPR39 was stably expressed was removed. Immediately thereafter, the fluorescent dye solution was dispensed in 100 μl each/well and the cells were incubated in a CO2 incubator for an hour so that the fluorescent dye was taken up into the cells. The cells after the incubation was washed with the assay buffer described above and set on FLIPR. A test sample to be added to the CHO cells where rat GPR39 was stably expressed was prepared using the assay buffer and set on FLIPR at the same time. Following the pre-treatment above, the changes in intracellular calcium levels after the addition of each test sample were determined by FLIPR.

mouse GPR39 = target: T1, mouse GPR39 (Mus musculus, UniProt Q5U431, T447P); type: cell-based; conditions: FLIPR, Fluo-3AM (FIG. 14 through FIG. 18)
T1 construct: expressed in transfected cells; host or cells: CHO cells, vector pAKKO-111H
T1 sequence (Q5U431 1-456 T447P): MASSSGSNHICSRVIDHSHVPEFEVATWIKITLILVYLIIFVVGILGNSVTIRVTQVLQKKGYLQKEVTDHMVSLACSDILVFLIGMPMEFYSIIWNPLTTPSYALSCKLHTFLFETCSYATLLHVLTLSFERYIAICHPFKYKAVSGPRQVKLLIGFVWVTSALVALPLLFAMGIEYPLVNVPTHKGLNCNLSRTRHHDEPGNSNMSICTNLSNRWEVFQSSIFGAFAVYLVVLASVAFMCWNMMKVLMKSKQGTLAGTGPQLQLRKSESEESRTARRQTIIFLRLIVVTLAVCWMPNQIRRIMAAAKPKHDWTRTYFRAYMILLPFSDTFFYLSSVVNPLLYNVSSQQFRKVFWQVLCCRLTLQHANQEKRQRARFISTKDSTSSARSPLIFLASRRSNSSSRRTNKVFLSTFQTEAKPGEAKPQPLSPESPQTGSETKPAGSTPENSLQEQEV
Method: as §1, §2
Using the CHO cell line where mouse GPR39 was stably expressed, the agonist activity of metal ions was detected on FLIPR in accordance with the procedures described in EXAMPLE 5, in terms of the intracellular calcium-increasing reaction as an indicator.

human GPR39 = target: T2, human GPR39 (Homo sapiens, UniProt O43194); type: cell-based; parameters: expressed in transfected cells; host or cells: CHO cells, vector pAKKO-111H; conditions: FLIPR, Fluo-3AM; metal salt added, 10-300 μM (FIGS. 1-4)
T2 sequence (O43194 1-453): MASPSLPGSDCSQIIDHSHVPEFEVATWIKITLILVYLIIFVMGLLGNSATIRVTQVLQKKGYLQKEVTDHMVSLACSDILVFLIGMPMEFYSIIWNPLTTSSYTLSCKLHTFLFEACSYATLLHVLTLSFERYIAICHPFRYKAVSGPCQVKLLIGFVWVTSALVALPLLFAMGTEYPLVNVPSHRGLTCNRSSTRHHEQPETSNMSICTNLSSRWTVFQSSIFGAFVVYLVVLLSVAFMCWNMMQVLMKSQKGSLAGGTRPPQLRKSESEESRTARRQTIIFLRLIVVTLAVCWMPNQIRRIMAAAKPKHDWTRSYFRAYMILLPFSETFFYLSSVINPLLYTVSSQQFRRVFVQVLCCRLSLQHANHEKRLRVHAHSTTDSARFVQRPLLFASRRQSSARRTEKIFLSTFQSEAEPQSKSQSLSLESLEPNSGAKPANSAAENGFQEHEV
Method: The human GPR39-GFP expression vector-transfected CHO cell line produced in EXAMPLE 1 (CHO/hGPR39-GFP) was diluted in 3×10^4 cells/100 μl. The dilution was dispensed onto a Black walled 96-well plate (Costar) in 100 μl each per well, followed by incubation overnight in a CO2 incubator. Changes in intracellular calcium levels were determined by the following method using FLIPR (Molecular Device). In 21 μl of DMSO (DOJIN), 50 μg of Fluo-3AM (DOJIN) was dissolved and an equal volume of 20% Pluronic acid (Molecular Probes) was added to the solution. After mixing them, the resulting mixture was added to 10.6 ml of assay buffer [prepared by adding 20 ml of 1M HEPES (pH 7.4) (DOJIN) to HBSS (Invitrogen Corp.) and further adding to the solution 10 ml of a solution mixture, which mixture was prepared by dissolving 710 mg of Probenecid (Sigma) in 5 ml of 1N NaOH and then adding thereto 5 ml of the HBSS/HEPES solution above] supplemented with 105 μl of fetal calf serum to prepare a fluorescent dye solution. The medium in the cell plate was removed. Immediately thereafter, the fluorescent dye solution was dispensed in 100 μl each/well and the cells were incubated in a CO2 incubator for an hour so that the fluorescent dye was taken up into the cells. The cells after the incubation were washed with the assay buffer described above and set on FLIPR. Compounds of metal elements to be added to the cells were diluted to the respective concentration with the assay buffer. The dilutions were dispensed onto plates for ligands and set on FLIPR. Following the pre-treatment above, changes in intracellular calcium levels after addition of metal elements were determined by FLIPR to study agonist activities.

[2] = tested on: bladder (micturition) of conscious rats; assay: Cystometry in conscious rats with intravesical infusion; type: in vivo, rat; conditions: female SD rats, protamine sulfate 10 mg/mL in PBS infused into the bladder for an hour
Method: Female SD rats of 9-10 weeks old were anaesthetized by intramuscular injection with 0.1 ml/100 g of a solution obtained by mixing ketamine (50 mg/mL) and xylazine (20 mg/mL) in 5:1. The bladder was then exposed via a midline incision and a hole was made with a 20-G needle to insert a polyethylene tube (PE-50), which tube was sutured to the bladder with cotton thread. The polyethylene tube cannulated into the bladder was cut at a length of about 1 cm, which was connected to a silicon tube (No. 00) and exposed to the dorsum through the skin. The animals were housed in individual cages until they were used for the experiments.
One day after the surgery, the animal was anesthetized with halothane and placed in Ballman cages under restricted conditions. After a three-way cock was connected to the tube cannulated into the bladder, a saline infusion tube was connected to a cystometry tube (resistance to infusion). An electronic scale was placed under the Ballman cages and the micturition volume was measured at the same time. When the anesthetic completely worn off, the infusion of saline into the bladder commenced and the bladder pressure and micturition volume were recorded on a personal computer via an A-D converter (MP-100, BIOPAC Systems) and analyzed using a dedicated software (AcqKnowledge, BIOPAC Systems).
Saline was infused into the bladder at the rate of 6 ml/hr and the infusion was continued for 1 or 2 hours until stable micturition was recorded. In order to enhance the permeability of a drug into the bladder, protamine sulfate (10 mg/mL in PBS) was infused into the bladder for an hour (Chuang Y, et. al., 2003, Urology, 63, 664-670). […] Then, saline was reinfused into the bladder and micturition was recorded at least 2 hours until protamine was completely washed off. […] Mean micturition intervals during from about 30 minutes to about 60 minutes after starting the infusion of CuCl2 were calculated to find a ratio to mean micturition intervals for about 30 minutes before the infusion of CuCl2 (% of the pre-value).

Compound | intracellular calcium response in CHO cells without the receptor or with GPCR other than GPR39 [1] | intracellular calcium levels of CHO/rGPR39 (rat GPR39) | intracellular calcium levels of CHO/mGPR39 (mouse GPR39) | intracellular calcium levels of CHO/hGPR39-GFP (human GPR39) | micturition intervals compared to those prior to the infusion [2]
[Cl][Cd][Cl] [cadmium chloride] | no such response was observed | dose-dependently increased | dose-dependently increased | dose-dependently increased | –
[Cl][Co][Cl] [cobalt chloride] | – | dose-dependently increased | dose-dependently increased | – | –
[Cl-].[Cl-].[Zn+2] [zinc chloride] | no such response was observed | dose-dependently increased | dose-dependently increased | dose-dependently increased | –
protamine sulfate | – | – | – | – | Any substantial change in micturition intervals was noted
